These results are taken from patent US20070197538A1, “Anti-vascular and anti-proliferation methods, therapies, and combinations employing specific tyrosine kinase inhibitors” (priority 2004, published 2007).

Counter-ions that a name gives are not always drawn.

One data set deals with L3.6 pL pancreatic tumor. Description: orthotopic human pancreatic cancer L3.6 pL in nude mice. Type of data set: in vivo. The settings on record: combination with Taxotere; for survival rate: 4-6 weeks; for effect of the combination in cancer refractory to chemotherapy: tumor cells resistant to Taxotere (MDR cells). The protocol:
A pancreatic tumor which is shown to upregulate expression of PDGF AA, BB, A/B at metastatic sites is used for the in vivo studies. Other tumor systems that are known to upregulate expression of PDGF may also be used such as ovarian cancer, prostate cancer, bone metastasis, or breast cancer bone metastasis.
Tumor cells L3.6 pL derived from pancreatic cancer are injected into the pancreas of nude mice. The tumors are grown into detectable lesions.
Two days later, the mice are killed and the organs with and without tumors harvested, fixed, and immunostained to evaluate expression of PDGF AA, BB, A/B, PDGF-R (α,β) and status of phosphorylation of PDGF-R (α,β) on tumor cells and organ-specific endothelial cells.
The surviving mice are then killed and the size of tumor and metastasis is measured. Fixation of the tissues and staining of the tumor cells are performed. Endothelial cells are examined for division (PCNA), apoptosis (TUNEL), CD31 (endothelial cells). Expression of PDGF AA, BB, A/B, and phosphorylation of PDGF-Rα/β are further studied in these endothelial cells.

Data set [1] deals with Mouse endothelial cells from pancreas. Description: sensitivity of pancreas endothelial cells to Taxotere cytotoxicity. Type of data set: cell-based. The following applies: with Taxotere; for sensitivity of endothelial cells to cytotoxicity mediated by Taxotere: cells at 33° C. The protocol:
Mouse endothelial cells from pancreas are maintained in culture at a temperature 33° C. where they are actively dividing.

For the next data set, the system named is MV4;11 cells. Description: intravenous MV4;11 leukemia model in NOD-SCID mice. The settings on record: for large infiltrating cells with mitotic figures in bone marrow: H&E-stained sections; for large infiltrating cells with mitotic figures in bone marrow / CD45 positive cells in bone marrow: oral 50-200 mg/kg; for CD45 positive cells in bone marrow: flow cytometry; for survival: oral, 50-200 mg/kg, once daily or 3 times per week. It is filed as in vivo. On the procedure:
In a subset of animals, bone marrow cell suspensions are prepared by flushing mouse femurs with cold sterile PBS, at experimental timepoints (within 90 days of implantation).
For orientation: Flow cytometry measures light scatter and fluorescence of single cells or particles in a stream.

In a further data set the test system is accelerated phase CML. The following applies: at 24 months; cited from earlier work.
The test system of data set [2] is blastic phase chronic myelogenous leukemia (CML). The settings on record: two trials, total of 304 patients; cited from earlier work.
In a further data set the target is T1, Lck (Homo sapiens, UniProt P06239).
T1 construct: host or cells: baculovirus system
The following applies: literature; cited from earlier work.

The target in a further data set is FYN (Homo sapiens, UniProt P06241). The following applies: literature; cited from earlier work.
Data set [3] deals with AML193 cells (wild type FLT3). As to the kind of experiment: AML193 cell growth, luminescence assay at 72 hours. The following applies: with or without 100 ng/mL FLT3 ligand, GN963 at concentrations used (30 μM), FIGS. 3 and 4.
For data set [4], the system named is RS4-11 cells (FLT3-wild type). As to the kind of experiment: RS4-11 cell growth, luminescence assay at 72 hours. Type of data set: cell-based, human. The settings on record: with or without 100 ng/mL FLT3 ligand, FIGS. 5 and 6.

T1 sequence (P06239 whole entry): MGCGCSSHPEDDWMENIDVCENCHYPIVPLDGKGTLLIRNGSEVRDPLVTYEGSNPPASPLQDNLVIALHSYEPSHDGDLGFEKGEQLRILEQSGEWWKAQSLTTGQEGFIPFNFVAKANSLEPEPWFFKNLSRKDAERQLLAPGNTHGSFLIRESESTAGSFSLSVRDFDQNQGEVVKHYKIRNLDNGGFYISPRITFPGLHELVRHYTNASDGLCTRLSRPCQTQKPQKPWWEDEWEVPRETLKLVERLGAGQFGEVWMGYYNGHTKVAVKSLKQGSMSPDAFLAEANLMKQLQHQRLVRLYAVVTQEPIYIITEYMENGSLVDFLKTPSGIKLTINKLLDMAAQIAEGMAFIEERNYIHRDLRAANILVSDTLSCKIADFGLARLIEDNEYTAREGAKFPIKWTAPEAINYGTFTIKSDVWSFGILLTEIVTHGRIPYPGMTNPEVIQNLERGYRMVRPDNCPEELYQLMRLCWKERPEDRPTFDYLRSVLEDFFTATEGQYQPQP
Chain of FYN (P06241 whole entry, species assumed): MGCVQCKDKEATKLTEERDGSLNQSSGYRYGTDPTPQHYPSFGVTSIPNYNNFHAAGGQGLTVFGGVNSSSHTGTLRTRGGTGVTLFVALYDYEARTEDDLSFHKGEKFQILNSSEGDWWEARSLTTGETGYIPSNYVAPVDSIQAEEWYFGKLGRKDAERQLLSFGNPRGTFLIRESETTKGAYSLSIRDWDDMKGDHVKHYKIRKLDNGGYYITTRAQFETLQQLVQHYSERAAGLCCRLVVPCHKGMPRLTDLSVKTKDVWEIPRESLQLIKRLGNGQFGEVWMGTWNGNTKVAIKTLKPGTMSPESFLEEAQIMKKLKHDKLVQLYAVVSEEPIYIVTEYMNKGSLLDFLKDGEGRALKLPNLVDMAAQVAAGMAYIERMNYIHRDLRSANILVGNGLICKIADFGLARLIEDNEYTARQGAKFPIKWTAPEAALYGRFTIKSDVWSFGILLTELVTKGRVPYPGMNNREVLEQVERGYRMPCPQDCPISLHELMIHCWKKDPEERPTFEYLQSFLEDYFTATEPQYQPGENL

Usually melting point stands for the temperature, or range, at which the solid turns liquid. Consider `CC(C)Oc1ccc2nc(Nc3ccccc3)cnc2c1.Cl`, for which the melting point is 205 to 210 °C (dec.).

Regarding `COc1cc2ncc(CNC3CCCCC3)nc2cc1OC` (as salt: HCl) [Example 7, Cyclohexyl-(6,7-dimethoxyquinoxalin-2-ylmethyl)-amine], the melting point is 185 to 190 °C (dec.).

For `COc1cc2ncc(N[C@@H]3CC[C@@H](O)[C@H](C)C3)nc2cc1OC` (stereo in doubt) [GN271, (1R,2R,4R)-4-(6,7-dimethoxy-quinoxalin-2-ylamino)-2-methyl-cyclohexanol], in the data set with L3.6 pL pancreatic tumor, the survival rate result is reported as “higher survival rate” and the “effect of the combination in cancer refractory to chemotherapy” value is recorded as “synergistic effect”. In data set [1], the “resistance of organ-specific endothelial cells to Taxotere increased by pancreatic tumor-conditioned medium” value was “reversal of this increased resistance” and the “sensitivity of endothelial cells to cytotoxicity mediated by Taxotere” value is “increases sensitivity of endothelial cells to cytotoxicity mediated by Taxotere”. In the data set with MV4;11 cells, the “large infiltrating cells with mitotic figures in bone marrow” value is listed as “reduced numbers of large infiltrating cells with mitotic figures”, the “CD45 positive cells in bone marrow” value was “reduced numbers of CD45 positive cells” and the survival result is given as “prolonged survival”.

Turning to `Oc1ccc2nc(Nc3ccccc3)cnc2c1` [Example 4, 2-Anilino-6-quinoxalinol], the melting point is 211 to 213 °C.

On to `c1ccc(Nc2cnc3cc(O[C@@H]4CCOC4)ccc3n2)cc1` [Example 5, Phenyl-[6-(tetrahydrofuran-3-(R)-yl-oxy)quinoxalin-2-yl]amine], for which the melting point lay within 173 to 175 °C.

`COc1cc2ncc(OC3CCCCC3)nc2cc1OC1CCCCC1` [Example 6, 2,7-Bis-cyclohexyloxy-6-methoxy-quinoxaline] had a melting point of 75 to 78 °C.

As to `COc1cc2cc(NCC(C)(C)CO)cnc2cc1OC` [Example 9, 3-(6,7-Dimethoxyquinolin-3-yl-amino)-2,2-dimethyl-propan-1-ol], the melting point was in the range of 170 to 173.5 °C.

In turn, `COc1cc2ncc(NC3CCCCC3)nc2cc1N1CCOCC1` [Example 10, Cyclohexyl-(6-methoxy-7-morpholin-4-yl-quinoxalin-2-yl)-amine] showed a melting point of 194 to 196 °C.

Consider `COc1cc2ncc(OC3CC4CC3C(O)C4O)nc2cc1OC` (centres unmarked) [Example 17, 5-(6,7-Dimethoxyquinoxalin-2-yloxy)-bicyclo [2.2.1]heptane-2,3-diol], for which the melting point lay within 85 to 88 °C.

Compound `COc1cc2ncc(OC3CCC(OC(=O)N(C)C)CC3)nc2cc1OC` (centres unmarked) [Example 19, Dimethyl-carbamic acid 4-(6,7-dimethoxyquinoxalin-2-yloxy)-cyclohexyl ester] yielded a melting point of 152 to 155 °C.

In turn, `COc1cc2ncc(N[C@H]3CC[C@H](OC(C)=O)CC3)nc2cc1OC` [Example 21, Acetic acid trans-4-(6,7-dimethoxyquinoxalin-2-ylamino)-cyclohexyl ester] displayed a melting point of 176 to 177 °C.

On to `COc1cc2ncc(N[C@@H]3C[C@H]4CC[C@@H]3C4)nc2cc1OC` [Example 25, (1R,2R,4S)-(+)-Bicyclo[2.2.1]hept-2-yl-(6,7-dimethoxyquinoxalin-2-yl)-amine], for which the melting point fell in the range of 184 to 186 °C.

As for `COc1cc2ncc(N[C@@H]3C[C@@H]4C[C@H]3C[C@H]4O)nc2cc1OC` [GN804, (1S,2R,4S,5R)-5-(6,7-Dimethoxyquinoxalin-2-ylamino)-Bicyclo[2.2.1]heptan-2-ol], in the data set on L3.6 pL pancreatic tumor, the survival rate result is given as “higher survival rate” and the “effect of the combination in cancer refractory to chemotherapy” value is “synergistic effect”. Moreover, in data set [1], the “resistance of organ-specific endothelial cells to Taxotere increased by pancreatic tumor-conditioned medium” value is on record as “reversal of this increased resistance” and the “sensitivity of endothelial cells to cytotoxicity mediated by Taxotere” value is on record as “increases sensitivity of endothelial cells to cytotoxicity mediated by Taxotere”. Further, in the data set with MV4;11 cells, the “large infiltrating cells with mitotic figures in bone marrow” value is reported as “reduced numbers of large infiltrating cells with mitotic figures”, the “CD45 positive cells in bone marrow” value is given as “reduced numbers of CD45 positive cells” and the survival result is “prolonged survival”.

`Cc1ccc(NC(=O)c2ccc(CN3CCN(C)CC3)cc2)cc1Nc1nccc(-c2cccnc2)n1` [Gleevec, imatinib mesylate]: the “incidence of disease progression” value with accelerated phase CML was 50%. Besides, in data set [2], the “estimated 1-year survival” value was “under 35%” and the “major cytogenetic response rate” value was 16%.

As for `Cc1ccc(-c2nn(C(C)(C)C)c3ncnc(N)c23)cc1` [PP1], on Lck, the LCK inhibitory potency result is given as “low nanomolar potency”. Also, at FYN, the FYN inhibitory potency entry was “low nanomolar potency”.

As for `CN[C@@H]1C[C@H]2O[C@@](C)([C@@H]1OC)n1c3ccccc3c3c4c(c5c6ccccc6n2c5c31)C(=O)NC4` [staurosporine, reference compound], the “effect on AML193 cell growth” value in [3] is “inhibits AML193 cell growth”. The “effect on RS4-11 cell growth” value in data set [4] was “inhibits RS4-11 cell growth”.
